The values that follow come from PubChem BioAssay (NCI).

Each structure is given as a SMILES string.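 Assay format: 96-well plates, 48-hour exposure. At the GI50, growth is halved. TGI: total growth inhibition.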

Some test systems named below: K-562 leukemia; SK-MEL-28 melanoma; HL-60(TB) leukemia; 786-0 renal; TK-10 renal; RXF 393 renal; SF-539 CNS; SK-MEL-5 melanoma.
What all share (assay): NCI-60 cell line screen, 48 h

For `COc1ccc(OC)c(/C=C2\COc3ccc(O)c(O)c3C2=O)c1`, the GI50 in the assay on K-562 leukemia was 2.17 µM; in the assay on SK-MEL-28 melanoma, 2.65 µM; with HL-60(TB) leukemia, 1.42 µM; in the assay with 786-0 renal it was 2.28 µM; in the assay with TK-10 renal, 4 µM; in the assay on RXF 393 renal it was 1.83 µM. The GI50 with SF-539 CNS is 2.23 µM; in the assay with SK-MEL-5 melanoma, 1.75 µM. Further, the TGI in the assay with K-562 leukemia was > 100 µM; with SK-MEL-28 melanoma, 7.51 µM; with HL-60(TB) leukemia it was 16.1 µM; in the assay with 786-0 renal it was 7.12 µM; with TK-10 renal, 14.3 µM; in the assay with RXF 393 renal, 3.58 µM. In addition, the TGI in the assay with SF-539 CNS was determined as 5.19 µM; in the assay with SK-MEL-5 melanoma it was 3.28 µM.
Regarding `CC1(C)N=C(N)N=C(N)N1c1cccc(CCCCOc2ccccc2)c1`, the GI50 in the assay with K-562 leukemia is 0.05 µM; with SK-MEL-28 melanoma, 0.521 µM; in the assay on HL-60(TB) leukemia, 0.0239 µM; in the assay with 786-0 renal, 0.142 µM; with TK-10 renal it was 0.197 µM; with RXF 393 renal, 0.147 µM. The GI50 in the assay with SF-539 CNS is 0.127 µM; in the assay with SK-MEL-5 melanoma it was 0.423 µM. The TGI was > 100 µM in the assay with K-562 leukemia; 20.6 µM with SK-MEL-28 melanoma; 9.6 µM in the assay on HL-60(TB) leukemia; > 100 µM in the assay on 786-0 renal; 62.6 µM in the assay with TK-10 renal; > 100 µM with RXF 393 renal. The TGI in the assay on SF-539 CNS amounted to 17 µM; in the assay on SK-MEL-5 melanoma, 5.29 µM.
In the case of `CSC1=Nc2c(c(C)c(C)n2COC(CO)CO)C2=NC(=O)CC(C)N12` (configuration not stated), the GI50 is > 100 µM in the assay with K-562 leukemia; > 100 µM with SK-MEL-28 melanoma; 0.0864 µM in the assay with HL-60(TB) leukemia; > 100 µM with 786-0 renal; > 100 µM in the assay on TK-10 renal; > 100 µM in the assay with RXF 393 renal. Besides, the GI50 in the assay with SF-539 CNS and in the assay on SK-MEL-5 melanoma was > 100 µM in each case. The TGI in the assay with K-562 leukemia, in the assay with SK-MEL-28 melanoma, with HL-60(TB) leukemia, in the assay with 786-0 renal, in the assay with TK-10 renal and in the assay on RXF 393 renal was > 100 µM in each case. Also, the TGI in the assay with SF-539 CNS and in the assay with SK-MEL-5 melanoma was > 100 µM throughout.
Regarding `O=C(O)CP(=O)(O)O`, the TGI in the assay with K-562 leukemia, in the assay with SK-MEL-28 melanoma, with HL-60(TB) leukemia, in the assay on 786-0 renal, in the assay with TK-10 renal and with RXF 393 renal was > 100 µM throughout. Further, the TGI with SF-539 CNS and with SK-MEL-5 melanoma was > 100 µM each time.
With `CCCC(=O)Nc1ccc2c(c1)CN1C(=O)c3ccccc3C1=N2`, the TGI with SK-MEL-28 melanoma, in the assay on HL-60(TB) leukemia, in the assay on 786-0 renal, in the assay with TK-10 renal, in the assay on SF-539 CNS and in the assay with SK-MEL-5 melanoma was > 100 µM in each case.
`COc1ccc(-c2nc(N3CCOCC3)c3sc(CN(C)c4ncc(C(=O)NO)cn4)cc3n2)cn1`: the GI50 in the assay on K-562 leukemia was < 0.01 µM; in the assay on SK-MEL-28 melanoma, 0.0129 µM; in the assay with HL-60(TB) leukemia, < 0.01 µM; in the assay with 786-0 renal, 0.0313 µM; in the assay with RXF 393 renal it was < 0.0122 µM; in the assay on SF-539 CNS, 0.0101 µM. Moreover, the TGI is > 100 µM with K-562 leukemia; 0.136 µM in the assay with SK-MEL-28 melanoma; 1.06 µM in the assay on HL-60(TB) leukemia; 0.171 µM in the assay with 786-0 renal; 0.0453 µM in the assay on RXF 393 renal; 0.161 µM in the assay with SF-539 CNS.
Consider `O=C1NC(c2c(Cl)cccc2Cl)Nc2ccccc21` (configuration not stated), for which the TGI is > 100 µM in the assay with SK-MEL-28 melanoma; 46.9 µM in the assay on HL-60(TB) leukemia; > 100 µM with 786-0 renal; > 100 µM in the assay with TK-10 renal; > 100 µM in the assay on RXF 393 renal; > 100 µM in the assay on SF-539 CNS. In the assay on SK-MEL-5 melanoma, this compound gave a TGI of 72.7 µM.
Consider `Cc1ccc(NC2=C(Cl)C(=O)N(Cc3ccccc3)C2=O)cc1Cl`, for which the GI50 is 3.69 µM with K-562 leukemia; 12.9 µM in the assay on SK-MEL-28 melanoma; 6.39 µM with 786-0 renal; 9.13 µM in the assay with TK-10 renal; 2.33 µM in the assay with RXF 393 renal; 5.64 µM in the assay on SK-MEL-5 melanoma. The TGI was 25.8 µM in the assay with K-562 leukemia; 29.3 µM in the assay on SK-MEL-28 melanoma; 21 µM in the assay with 786-0 renal; 24.3 µM in the assay with TK-10 renal; 10.6 µM with RXF 393 renal; 19.1 µM in the assay with SK-MEL-5 melanoma.
Turning to `COc1ccc(CCN2CCC(Nc3nc4ccccc4n3Cc3ccc(F)cc3)CC2)cc1`, the GI50 in the assay with SK-MEL-28 melanoma was 1.61 µM; with HL-60(TB) leukemia, 1.96 µM; in the assay on 786-0 renal it was 1.46 µM; with TK-10 renal, 1.82 µM; with RXF 393 renal it was 1.16 µM; with SF-539 CNS it was 1.77 µM. Also, the GI50 in the assay with SK-MEL-5 melanoma was 1.32 µM. The TGI was 3.03 µM with SK-MEL-28 melanoma; 3.81 µM in the assay on HL-60(TB) leukemia; 2.77 µM in the assay on 786-0 renal; 3.38 µM in the assay on TK-10 renal; 2.44 µM with RXF 393 renal; 3.25 µM with SF-539 CNS. Further, the TGI in the assay on SK-MEL-5 melanoma was 2.6 µM.
For the compound `CCC(c1ccc2cc(O)ccc2c1)C(C)(C)C(=O)O` (configuration not stated), the TGI in the assay with K-562 leukemia, with SK-MEL-28 melanoma, in the assay with 786-0 renal, in the assay with TK-10 renal, in the assay on RXF 393 renal and with SF-539 CNS was > 100 µM each time. Also, the TGI with SK-MEL-5 melanoma is > 100 µM.
For the compound `O=C(CN1C(=O)S/C(=C\C(Cl)=C\c2ccccc2)C1=O)NCCc1ccc(O)cc1`, the GI50 was 2.28 µM in the assay on K-562 leukemia; 1.73 µM in the assay on SK-MEL-28 melanoma; 1.84 µM with 786-0 renal; 2.42 µM in the assay with TK-10 renal; 1.78 µM with RXF 393 renal; 1.74 µM in the assay on SF-539 CNS. In the assay on SK-MEL-5 melanoma, the GI50 is 1.8 µM. The TGI is > 100 µM with K-562 leukemia; 3.44 µM with SK-MEL-28 melanoma; 3.54 µM in the assay on 786-0 renal; 5.02 µM in the assay on TK-10 renal; 3.5 µM with RXF 393 renal; 3.63 µM in the assay with SF-539 CNS. Besides, the TGI in the assay with SK-MEL-5 melanoma turned out to be 3.4 µM.
`NC1=CC(=O)c2nc3ccccc3c3ccnc1c23`: the GI50 was 4.26 µM in the assay with K-562 leukemia; 11.8 µM in the assay on SK-MEL-28 melanoma; 6.38 µM with HL-60(TB) leukemia; 7.49 µM with 786-0 renal; 6.54 µM in the assay with TK-10 renal; 4.78 µM with RXF 393 renal. For the same compound, the GI50 with SF-539 CNS was 3.99 µM. Further, the TGI was > 100 µM in the assay with K-562 leukemia; 32 µM with SK-MEL-28 melanoma; > 58.8 µM in the assay with HL-60(TB) leukemia; > 66.5 µM in the assay with 786-0 renal; 42.5 µM in the assay with TK-10 renal; 17.2 µM in the assay on RXF 393 renal. This compound also yielded a TGI in the assay on SF-539 CNS of 57.1 µM.
